Measured values as given in US4278670A, “7-Alpha-oxyiminoacylcephalosporins” (SmithKline Corporation, priority 1976, dated 1981).
Converted amounts (≈) assume the structure as drawn. Counter-ions that a name gives are not always drawn. Like-named read-outs stand apart in the source and are kept apart here.

Assays:
S. Aureus HH 127 = test: MIC in vitro, S. Aureus HH 127 (G+); type: cell-based; details: Staphylococcus aureus
S. Aureus SK 23390 = test: MIC in vitro, S. Aureus SK 23390 (G+); type: cell-based; details: Staphylococcus aureus
S. villaluz SK 70390 = test: MIC in vitro, S. villaluz SK 70390 (G+); type: cell-based
Strep. Faecalis HH 34358 = test: MIC in vitro, Strep. Faecalis HH 34358 (G+); type: cell-based; details: Enterococcus faecalis
E. coli SK 12140 = test: MIC in vitro, E. coli SK 12140 (G-); type: cell-based; details: Escherichia coli, SK12140
E. coli HH 33779 = test: MIC in vitro, E. coli HH 33779 (G-); type: cell-based; details: Escherichia coli, HH33779
Kleb. pneumoniae SK 2400 = test: MIC in vitro, Kleb. pneumoniae SK 2400 (G-); type: cell-based; details: Klebsiella pneumoniae, SK2400
Kleb. pneumoniae SK 1200 = test: MIC in vitro, Kleb. pneumoniae SK 1200 (G-); type: cell-based; details: Klebsiella pneumoniae, SK1200
Salmonella ATCC 12176 = test: MIC in vitro, Salmonella ATCC 12176 (G-); type: cell-based; details: ATCC12176
Pseudo Aeruginosa HH 63 = test: MIC in vitro, Pseudo Aeruginosa HH 63 (G-); type: cell-based
[1] = tested on: Serratia Marcescens ATCC 13880; test: MIC in vitro, Serratia Marcescens ATCC 13880 (G-); type: cell-based; details: ATCC13880
Proteus morgani 179 = test: MIC in vitro, Proteus morgani 179 (G-); type: cell-based
[2] = tested on: Entero. aerogenes ATCC 13048; test: MIC in vitro, Entero. aerogenes ATCC 13048 (G-); type: cell-based; details: Klebsiella aerogenes, ATCC13048
Entero. cloacae HH 31254 = test: MIC in vitro, Entero. cloacae HH 31254 (G-); type: cell-based; details: Enterobacter cloacae, HH31254
P. Mirabils PM 444 = test: MIC in vitro, P. Mirabils PM 444 (G-); type: cell-based
E. coli 12140 = test: mouse protection against E. coli 12140; type: in vivo; details: Escherichia coli, sc, S.C.
Text: For comparison with known used compounds, data for cefuroxime, cefazolin and cephalothin are included.

[3] = in vitro, G+, Strep. Faecalis HH 34358, read-out: MIC
[4] = in vitro, G-, Proteus morgani 179, read-out: MIC
[5] = in vitro, G-, Entero. aerogenes ATCC 13048, read-out: MIC
[6] = in vitro, G+, S. Aureus HH 127, read-out: MIC
[7] = in vitro, G+, S. Aureus SK 23390, read-out: MIC
[8] = in vitro, G+, S. villaluz SK 70390, read-out: MIC
[9] = in vitro, G-, Kleb. pneumoniae SK 2400, read-out: MIC
[10] = in vitro, G-, Kleb. pneumoniae SK 1200, read-out: MIC
[11] = in vitro, G-, Salmonella ATCC 12176, read-out: MIC
[12] = in vitro, G-, Entero. cloacae HH 31254, read-out: MIC

Compound	MIC (S. Aureus HH 127)	MIC (S. Aureus SK 23390)	MIC (Strep. Faecalis HH 34358; [3])	MIC (E. coli SK 12140)	MIC (E. coli HH 33779)	MIC (Kleb. pneumoniae SK 2400)	MIC (Kleb. pneumoniae SK 1200)	MIC (Pseudo Aeruginosa HH 63)	MIC ([1]; Serratia marcescens)	MIC (Proteus morgani 179; [4])	MIC [2, 5]	MIC (P. Mirabils PM 444)	ED50 (E. coli 12140)	MIC (S. Aureus HH 127; [6])	MIC (S. Aureus SK 23390; [7])	MIC (S. villaluz SK 70390; [8])	MIC (Kleb. pneumoniae SK 2400; [9])	MIC (Kleb. pneumoniae SK 1200; [10])	MIC (Salmonella ATCC 12176; [11])	MIC (Entero. cloacae HH 31254; [12])	other results
CO/N=C(\C(=O)N[C@@H]1C(=O)N2C(C(=O)O)=C(COC(N)=O)CS[C@H]12)c1ccco1 [Cefuroxim, cefuroxime]	0.8 µg/mL (≈ 1.89 µM)	1.6 µg/mL (≈ 3.77 µM)	2.5 µg/mL (≈ 5.89 µM)	6.3 µg/mL (≈ 14.8 µM)	6.3 µg/mL (≈ 14.8 µM)	3.1 µg/mL (≈ 7.3 µM)	3.1 µg/mL (≈ 7.3 µM)	> 200 µg/mL	12.5 µg/mL (≈ 29.5 µM)	50 µg/mL (≈ 118 µM)	6.3 µg/mL (≈ 14.8 µM)	1.6 µg/mL (≈ 3.77 µM)	6.25 mg/kg								MIC (S. villaluz SK 70390): > 200 µg/mL; MIC (Salmonella ATCC 12176; Salmonella): 3.1 µg/mL (≈ 7.3 µM); MIC (Entero. cloacae HH 31254): 3.1 µg/mL (≈ 7.3 µM)
Cc1nnc(SCC2=C(C(=O)O)N3C(=O)[C@@H](NC(=O)Cn4cnnn4)[C@H]3SC2)s1 [Cefazolin, cefazolin]			6.3 µg/mL (≈ 13.9 µM)	0.8 µg/mL (≈ 1.76 µM)						100 µg/mL (≈ 220 µM)	1.6 µg/mL (≈ 3.52 µM)	3.1 µg/mL (≈ 6.82 µM)	6.25 mg/kg	0.4 µg/mL (≈ 0.88 µM)	0.2 µg/mL (≈ 0.44 µM)	200 µg/mL (≈ 440 µM)	0.8 µg/mL (≈ 1.76 µM)	0.8 µg/mL (≈ 1.76 µM)	0.8 µg/mL (≈ 1.76 µM)	0.8 µg/mL (≈ 1.76 µM)	MIC (E. coli HH 33779; in vitro, G-, E. coli HH 33779, read-out: MIC): 0.8 µg/mL (≈ 1.76 µM); MIC (Pseudo Aeruginosa HH 63; in vitro, G-, Pseudo Aeruginosa HH 63, read-out: MIC): > 200 µg/mL; MIC ([1]; in vitro, G-, Serratia Marcescens ATCC 13880, read-out: MIC): 100 µg/mL (≈ 220 µM)
CO/N=C(\C(=O)N[C@@H]1C(=O)N2C(C(=O)O)=C(CSc3nnnn3CCC(=O)O)CS[C@H]12)c1ccco1 [Example 1, 7[Syn-2-methoxyimino-2-α-furylacetamido]-3-[1-(2-carboxyethyl)tetrazol-5-ylthiomethyl]-3-cephem-4-carboxylic acid, disodium salt]	3.1 µg/mL	1.6 µg/mL			3.1 µg/mL			200 µg/mL	3.1 µg/mL	1.6 µg/mL		0.2 µg/mL	4.4 mg/kg			> 200 µg/mL	0.8 µg/mL	0.8 µg/mL	0.8 µg/mL	1.6 µg/mL	MIC (Strep. Faecalis HH 34358): 50 µg/mL; MIC (E. coli SK 12140; in vitro, G-, E. coli SK 12140, read-out: MIC): 1.6 µg/mL; MIC [2]: 3.1 µg/mL
CC(=O)OCC1=C(C(=O)O)N2C(=O)[C@@H](NC(=O)Cc3cccs3)[C@H]2SC1 [Cephalothin, cephalothin]				3.1 µg/mL (≈ 7.82 µM)	6.3 µg/mL (≈ 15.9 µM)	3.1 µg/mL (≈ 7.82 µM)	1.6 µg/mL (≈ 4.04 µM)	> 200 µg/mL	> 200 µg/mL			3.1 µg/mL (≈ 7.82 µM)		0.2 µg/mL (≈ 0.504 µM)	0.2 µg/mL (≈ 0.504 µM)	50 µg/mL (≈ 126 µM)			0.8 µg/mL (≈ 2.02 µM)	6.3 µg/mL (≈ 15.9 µM)	MIC (Strep. Faecalis HH 34358): 12.5 µg/mL (≈ 31.5 µM); MIC (Proteus morgani 179): > 200 µg/mL; MIC [2]: 12.5 µg/mL (≈ 31.5 µM)
